Results published in patent US20250057963A1, “DISCOVERY OF PIPERLONGUMINE AS A NOVEL E3 LIGASE LIGAND” (University of Florida Research Foundation, Incorporated, priority 2021, published 2025).
“Also recorded” adds a separate entry of the source.

Legend:
[1] = system: PL-binding proteins in MOLT4 cells; assay: Competitive ABPP with PL-Alkyne probe and LC-MS/MS in MOLT4 cells; design: species or system Human
Protocol: Competitive ABPP. MOLT4 cells (2×10^7) were pre-treated with DMSO or 20 µM PL for 4 h and then treated with 1 μM PL-Alkyne probe (Zhang et al., 2018b) for an additional 4 h. The cells were then harvested and lysed in 1× Dulbecco's phosphate-buffered saline (PBS) buffer (Cat. #D1408, Sigma-Aldrich) containing protease and phosphatase inhibitors. CuAAC reaction was performed as previously described (Spradlin et al., 2019) and biotinylated proteins were enriched using Pierce™ streptavidin agarose beads (Cat. #20353, ThermoFisher).
Sample preparation and LC-MS/MS analysis. Protein samples were reduced, alkylated, and digested on-bead using filter-aided sample preparation (Wisniewski et al., 2009) with sequencing grade modified porcine trypsin (Cat. No. V5111, Promega). […]
The MS/MS was acquired according to standard conditions established in the lab. […] The scan sequence of the mass spectrometer was based on the original TopTen™ method; the analysis was programmed for a full scan recorded between 375-1575 Da at 60,000 resolution, and a MS/MS scan at resolution 15,000 to generate product ion spectra to determine amino acid sequence in consecutive instrument scans of the fifteen most abundant peaks in the spectrum. […]
Data processing and analysis. All MS/MS samples were analyzed using Sequest (Thermo Fisher Scientific, San Jose, CA, USA; version IseNode in Proteome Discoverer 2.4.0.305). […]

[2] = system: proteins in senescent WI38 cells; conditions: cited from earlier work
CDK9 = CDK9 (Homo sapiens, UniProt P50750); assay: CDK9 degradation in MOLT4 cells (immunoblot); assay type: cell-based; design: endogenous in cells; host or cells: MOLT4, 293T, K562, NCI-H1299, LNCaP; conditions: immunoblot
Protocol: All the cell lines were maintained in a humidified incubator at 37° C. and 5% CO2.
Data analysis was performed using GraphPad Prism software (version 9) unless indicated otherwise. All graphs presented represent the mean±standard deviation of the mean (SD) unless otherwise stated.

[3] = system: LNCaP prostate cancer cells and H1299 lung cancer cells; assay: Cell killing (MTS) with or without KEAP1 siRNA knockdown; assay type: cell-based, Human; conditions: KEAP1 siRNA vs control siRNA 48 h; compound 0.1 mM (LNCaP) or 0.3 mM (H1299) for 24 h
Protocol: FIGS. 19A to 19B show percentages of cell killing in LNCaP (FIG. 19A) and H1299 (FIG. 19B) cells with or without KEAP1 knockdown. LNCaP and H1299 cells were treated with control siRNA or siRNAs targeting KEAP1 for 48 h and then reseeded and treated with indicated compound (0.1 mM for LNCaP cells and 0.3 mM for H1299 cells) for 24 h. The cell viability was then determined by MTS assay. The data are presented as mean±SD from three replicate cell cultures in a representative experiment. Data are representative of two independent experiments. Statistical significance was calculated with unpaired two-tailed Student's t-tests. **P<0.01; ***P<0.001; NS: not significant.
Viability (MTS) assays in various cancer cells followed the methods described in our previous report (Khan et al., 2019). The data were expressed as average % cell viability and fitted in non-linear regression curves using GraphPad Prism 9 (GraphPad Software, La Jolla, CA, USA).

[4] = biological target: T1, CDK9: 955: KEAP1 ternary complex (Homo sapiens, UniProt P50750+Q14145); assay: NanoBRET ternary complex formation assay in live 293T cells; assay type: cell-based; conditions: HiBit-CDK9 and Halo-KEAP1 in 293T cells, 6 h
T1 construct: expressed in transfected cells; host or cells: 293T
Text: CMV HiBit (Cat. No. CS1956B03) was purchased from Promega. Plasmid HaloTag-KEAP1 (a gift from Yimon Aye, plasmid #58240) was purchased from Addgene. HiBit-CDK9 were constructed through the Gibson assembly method. The primer pair (5′-[…]atggcaaagcagtacgactcggtggag-3′ and 5′-[…]gaagacgcgctcaaactccgtctggt-3′) and the template HA-CDK9 (a gift from Andrew Rice, plasmid #28102) was used to clone the CDK9 fragment. The primer pair (5′-accagacggagtttgagcgcgtcttc[…]-3′ and 5′-ctccaccgagtcgtactgcttcgccat[…]-3′) and pBit3.1—N(Cat. No. N2361, Promega) were used to clone the vector-containing fragment. The PCR fragments were assembled using NEBuilder® HiFi DNAAssembly Master Mix. DNA sequences in all these plasmids were authenticated by automatic sequencing. […] After treatment, NanoBRET Nano-Glo Substrate (Cat. No. N1662, Promega) was added into the medium, and the contents were mixed by shaking the plate for 30 s before measuring donor and acceptor signals on Biotek plate reader. Dual-filtered luminescence was collected with a 450/50 nm bandpass filter (donor, NanoBiT-CDK9 protein) and a 610-nm longpass filter (acceptor, HaloTag NanoBRET ligand) using an integration time of 0.5 s. mBRET ratios were calculated following the NanoBRET™ Nano-Glo® Detection System (Cat. No. N1662, Promega).

EML4-ALK = biological target: T2, EML4-ALK (Homo sapiens, UniProt Q9UM73); assay: EML4-ALK degradation in NCI-H2228 cells (immunoblot); assay type: cell-based
T2 construct: endogenous in cells; host or cells: NCI-H2228; the other entry of the earlier key: EML4 (Q9HC35, Echinoderm microtubule-associated protein-like 4)
Protocol: Human T-ALL MOLT4 (Cat. No. CRL-1582), K562 (Cat. No. CCL-243), NCI-H1299 (Cat. No. CRL-5803), NCI-H2228 (Cat. No. CRL-5935), LNCaP (Cat. No. CRL-1740), 22RV1 (Cat. No. CRL-2505), PC3 (Cat. No. CRL-1435), DU145 (Cat. No. HTB-81), and epithelial kidney HEK 293T (293T, Cat. No. ACS-4500) cell lines were recently purchased from American Type Culture Collection (ATCC, Manassas, VA, USA). MOLT4, K562, NCI—H-1299, NCI-H2228, LNCap, and 22RV 1 cell lines were cultured in RPMI 1640 medium (Cat No. 22400-089, Thermo Fisher Scientific, Waltham, MA, USA) supplemented with 10% (v/v) heat-inactivated fetal bovine serum (FBS, Cat. No. S11150H, Atlanta Biologicals, Flowery Branch, GA, USA), 100 U/mL penicillin and 100 pig/mL streptomycin (Pen-Strep, Cat. No. 15140122, Thermo Fisher Scientific). PC3 cells were cultured in complete F—12K medium (Kaighn's modification of Ham's F-12 medium, Cat. No. 30-2004, ATCC) supplemented with 10% (v/v) heat-inactivated FBS, 100 U/mL penicillin, and 100 μg/mL streptomycin. DU145 cells were cultured in complete Eagle's Minimum Essential Medium (EMEM, Cat. No. 30-2003, ATCC) supplemented with 10% (v/v) heat-inactivated FBS, 100 U/mL penicillin, and 100 μg/mL streptomycin. […]
Immunoblot data were quantified using the ImageJ (v 1.53a) software from NIH. […]

Chain of CDK9 (P50750 whole entry): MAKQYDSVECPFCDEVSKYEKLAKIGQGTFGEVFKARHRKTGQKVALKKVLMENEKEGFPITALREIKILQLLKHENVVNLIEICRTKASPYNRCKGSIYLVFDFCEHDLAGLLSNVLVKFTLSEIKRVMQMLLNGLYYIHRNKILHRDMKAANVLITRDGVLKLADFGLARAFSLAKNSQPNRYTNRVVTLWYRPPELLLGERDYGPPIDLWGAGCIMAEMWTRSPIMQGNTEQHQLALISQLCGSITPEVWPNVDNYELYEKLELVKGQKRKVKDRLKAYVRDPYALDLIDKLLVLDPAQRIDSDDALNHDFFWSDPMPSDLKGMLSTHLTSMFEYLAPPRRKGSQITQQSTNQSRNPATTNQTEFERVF
T2 sequence (Q9UM73 with tags, fused parts or gaps): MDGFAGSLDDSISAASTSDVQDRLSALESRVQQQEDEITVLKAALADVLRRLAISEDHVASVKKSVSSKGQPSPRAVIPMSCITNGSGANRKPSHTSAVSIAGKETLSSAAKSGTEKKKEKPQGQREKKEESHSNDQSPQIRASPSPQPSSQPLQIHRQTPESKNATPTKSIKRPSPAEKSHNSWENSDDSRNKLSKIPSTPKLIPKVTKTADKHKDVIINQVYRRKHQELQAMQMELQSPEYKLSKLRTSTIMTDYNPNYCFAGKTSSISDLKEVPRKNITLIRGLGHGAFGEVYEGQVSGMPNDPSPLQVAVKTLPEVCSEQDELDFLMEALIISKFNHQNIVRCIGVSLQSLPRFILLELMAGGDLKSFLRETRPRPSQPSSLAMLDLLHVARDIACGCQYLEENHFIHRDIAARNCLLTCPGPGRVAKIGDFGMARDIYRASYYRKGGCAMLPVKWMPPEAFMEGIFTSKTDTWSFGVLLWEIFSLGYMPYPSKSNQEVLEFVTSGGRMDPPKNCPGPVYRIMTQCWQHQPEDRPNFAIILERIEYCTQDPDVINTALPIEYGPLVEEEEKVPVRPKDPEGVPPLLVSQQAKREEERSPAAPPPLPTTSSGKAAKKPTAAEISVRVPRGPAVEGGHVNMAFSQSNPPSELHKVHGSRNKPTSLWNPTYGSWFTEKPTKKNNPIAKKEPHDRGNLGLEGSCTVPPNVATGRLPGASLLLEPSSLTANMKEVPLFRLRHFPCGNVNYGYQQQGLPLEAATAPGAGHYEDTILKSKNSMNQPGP
T1 sequence (P50750 whole entry): as the sequence (P50750 whole entry) above
T1 sequence (Q14145 whole entry): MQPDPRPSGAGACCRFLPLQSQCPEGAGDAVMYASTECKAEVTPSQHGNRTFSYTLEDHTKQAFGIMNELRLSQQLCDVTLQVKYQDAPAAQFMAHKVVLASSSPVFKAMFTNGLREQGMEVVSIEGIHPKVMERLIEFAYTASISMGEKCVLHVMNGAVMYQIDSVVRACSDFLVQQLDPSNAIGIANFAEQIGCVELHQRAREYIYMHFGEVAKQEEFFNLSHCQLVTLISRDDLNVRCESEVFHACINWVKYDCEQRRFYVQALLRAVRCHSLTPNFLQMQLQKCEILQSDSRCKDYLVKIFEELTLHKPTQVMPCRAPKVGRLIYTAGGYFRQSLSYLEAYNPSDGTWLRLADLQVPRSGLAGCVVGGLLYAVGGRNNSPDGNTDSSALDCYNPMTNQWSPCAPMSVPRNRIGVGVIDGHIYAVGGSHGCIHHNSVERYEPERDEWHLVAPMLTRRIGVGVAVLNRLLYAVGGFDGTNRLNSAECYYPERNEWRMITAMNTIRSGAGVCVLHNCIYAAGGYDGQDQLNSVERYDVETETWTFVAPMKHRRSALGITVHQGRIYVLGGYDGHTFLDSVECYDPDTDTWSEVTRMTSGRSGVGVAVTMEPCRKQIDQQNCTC

Compound | number of PL-binding E3 ligases [1] | number of PL-binding proteins [1] | number of PL-binding proteins ([2]; senescent WI38 fibroblasts, previous study) | number of PL-binding E3 ligases ([2]; senescent cells, previous study (Zhang et al., 2018b)) | CDK9 degradation (CDK9) | effect of KEAP1 knockdown on cytotoxicity of the compound [3] | formation of the CDK9:KEAP1 ternary complex [4] | 819-induced EML4-ALK degradation after pre-treatment with MG132, MLN4924 or DMF (EML4-ALK) | EML4-ALK degradation (EML4-ALK; immunoblot)
COc1cc(/C=C/C(=O)N2CCC=CC2=O)cc(OC)c1OC [PL, Piperlongumine] | 9 | about 300 | 172 | 8 | only 955, degraded CDK9; also recorded: none of these treatments degraded CDK9 | – | – | – | –
COc1cc(CCC(=O)N2CCCCC2=O)cc(OC)c1OCCN1CCN(C(=O)CN2CCC(C(=O)Nc3ncc(SCc4ncc(C(C)(C)C)o4)s3)CC2)CC1 [compound 336, N-(5-(((5-(tert-butyl)oxazol-2-yl)methyl)thio)thiazol-2-yl)-1-(2-(4-(2-(2,6-dimethoxy-4-(3-oxo-3-(2-oxopiperidin-1-yl)propyl)phenoxy)ethyl)piperazin-1-yl)-2-oxoethyl)piperidine-4-carboxamide] | – | – | – | – | could not induce CDK9 degradation; also recorded: but not 336, can induce CDK9 degradation; also recorded: cannot degrade CDK9 | no significant effect | did not; also recorded: negligible | – | –
COc1cc(/C=C/C(=O)N2CCC=CC2=O)cc(OC)c1OCC(=O)N1CCC(c2cc(OC(C)C)c(Nc3ncc(Cl)c(Nc4ccccc4S(=O)(=O)C(C)C)n3)cc2C)CC1 [compound 819, (E)-1-(3-(4-(2-(4-(4-((5-chloro-4-((2-(isopropylsulfonyl)phenyl)amino)pyrimidin-2-yl)amino)-5-isopropoxy-2-methylphenyl)piperidin-1-yl)-2-oxoethoxy)-3,5-dimethoxyphenyl)acryloyl)-5,6-dihydropyridin-2(1H)-one] | – | – | – | – | – | – | – | can be blocked | concentration-dependent manner; also recorded: degrades EML4-ALK
